Measured values taken from ChEMBL document CHEMBL4665706, “Synthesis of a Unique Psammaplysin F Library and Functional Evaluation in Prostate Cancer Cells by Multiparametric Quantitative Single Cell Imaging” (J Nat Prod, 2020).
The source made the active and inactive calls. The calls are words filed in the database; no cut-off is given here.

Tests used:
LNCaP [1] = test: Reduction in mitochondrial membrane potential in human LNCaP cells assessed as reduction in tubular structure at 20 to 50 uM after 24 hrs by Hoechst 33342/MTG staining-based by fluorescence assay; assay type: functional, cell-based; details: dose microM 20-50, time 24.0 hrs
LNCaP [2] = test: Cell cycle arrest in human LNCaP cells assessed as cell death at 20 to 50 uM after 24 hrs in presence of VINB by DAPI staining-based fluorescence assay; assay type: functional; details: dose microM 20-50, time 24.0 hrs
LNCaP [3] = test: Cell cycle arrest in human LNCaP cells assessed as accumulation of cells at M phase at 20 to 50 uM after 24 hrs by DAPI staining-based fluorescence assay; assay type: functional; details: dose microM 20-50, time 24.0 hrs
LNCaP [4] = test: Cell cycle arrest in human LNCaP cells assessed as accumulation of cells at G2 phase at 20 to 50 uM after 24 hrs by DAPI staining-based fluorescence assay; assay type: functional; details: dose microM 20-50, time 24.0 hrs
LNCaP [5] = test: Cell cycle arrest in human LNCaP cells assessed as cell death at 20 to 50 uM after 24 hrs in presence of 6AA by DAPI staining-based fluorescence assay; assay type: functional; details: dose microM 20-50, time 24.0 hrs
LNCaP [6] = test: Reduction in mitochondrial membrane potential in human LNCaP cells assessed as mitochondrial morphological change at 50 uM after 24 hrs by Hoechst 33342/MTG staining-based by fluorescence assay; assay type: functional, cell-based

In the case of `COC1=C(Br)C[C@@]2(OC=C1Br)ON=C(C(=O)NCCCOc1c(Br)cc(CCN(C)C(=O)C(C)(C)C)cc1Br)[C@H]2O`, the Activity (LNCaP [1]) is reported as “Active”, the Activity (LNCaP [2]) is reported as “Active” and the Activity (LNCaP [3]) is reported as “Active”. For the same compound, the Activity (LNCaP [4]) was “Active” and the Activity (LNCaP [5]) was “Active”.
`COC1=C(Br)C[C@@]2(OC=C1Br)ON=C(C(=O)NCCCOc1c(Br)cc(CCN(C)C(=O)Nc3ccc(C(C)=O)cc3)cc1Br)[C@H]2O` was tested, and the Activity (LNCaP [3]) was “Active” and the Activity (LNCaP [4]) was “Active”.
For `COC1=C(Br)C[C@@]2(OC=C1Br)ON=C(C(=O)NCCCOc1c(Br)cc(CCN(C)C(=O)Nc3cccc(OC)c3OC)cc1Br)[C@H]2O`, the Activity (LNCaP [3]) was “inactive” and the Activity (LNCaP [4]) was “inactive”.
With `COC1=C(Br)C[C@@]2(OC=C1Br)ON=C(C(=O)NCCCOc1c(Br)cc(CCN(C)C(=O)NCc3ccc(OC)cc3)cc1Br)[C@H]2O` the Activity (LNCaP [3]) was “inactive” and the Activity (LNCaP [4]) was “inactive”.
For `COC1=C(Br)C[C@@]2(OC=C1Br)ON=C(C(=O)NCCCOc1c(Br)cc(CCN(C)C(=O)NCCc3ccc(F)cc3)cc1Br)[C@H]2O`, the Activity (LNCaP [3]) was “Active” and the Activity (LNCaP [4]) was “Active”.
For `COC1=C(Br)C[C@@]2(OC=C1Br)ON=C(C(=O)NCCCOc1c(Br)cc(CCN(C)C(=O)NC3CCCC3)cc1Br)[C@H]2O`, the Activity (LNCaP [3]) was “Active” and the Activity (LNCaP [4]) was “Active”.
`CNCCc1cc(Br)c(OCCCNC(=O)C2=NO[C@]3(CC(Br)=C(OC)C(Br)=CO3)[C@@H]2O)c(Br)c1` was tested, and the Activity (LNCaP [1]) was “Active”, the Activity (LNCaP [6]) was “Active” and the Activity (LNCaP [3]) was “Active”. The Activity (LNCaP [4]) was “Active”.
For `COC1=C(Br)C[C@@]2(OC=C1Br)ON=C(C(=O)NCCCOc1c(Br)cc(CCN(C)C(=O)Nc3ccccc3)cc1Br)[C@H]2OC(=O)c1ccccc1`, the Activity (LNCaP [3]) was “inactive” and the Activity (LNCaP [4]) was “inactive”.
In the case of `C=CCNC(=O)N(C)CCc1cc(Br)c(OCCCNC(=O)C2=NO[C@]3(CC(Br)=C(OC)C(Br)=CO3)[C@@H]2O)c(Br)c1`, the Activity (LNCaP [1]) is reported as “Active”, the Activity (LNCaP [3]) is reported as “Active” and the Activity (LNCaP [4]) is reported as “Active”.
For `CCCCNC(=O)N(C)CCc1cc(Br)c(OCCCNC(=O)C2=NO[C@]3(CC(Br)=C(OC)C(Br)=CO3)[C@@H]2O)c(Br)c1`, the Activity (LNCaP [1]) was “Active”, the Activity (LNCaP [2]) was “Active” and the Activity (LNCaP [3]) was “Active”. The Activity (LNCaP [4]) was “Active” and the Activity (LNCaP [5]) was “Active”.
With `COC1=C(Br)C[C@@]2(OC=C1Br)ON=C(C(=O)NCCCOc1c(Br)cc(CCN(C)C(=O)C(C)(C)C)cc1Br)[C@H]2OC(=O)C(C)(C)C` the Activity (LNCaP [1]) was “Active”, the Activity (LNCaP [3]) was “Active” and the Activity (LNCaP [4]) was “Active”.
